Measured values published in patent US5034396A, “Method of treating depression with optically active isomers of 20,21-dinoreburnamenines” (Roussel Uclaf, priority 1987, dated 1991).

Key:
[1] = tested on: alpha2 adrenergic receptors; test: Affinity for the alpha2 adrenergic receptors (3H rauwolscine displacement, rat cortex membranes); assay type: binding; details: 3H rauwolscine 0.15 nM, 45 minutes at 25° C., from CD (phentolamine) and CX (product) concentrations inhibiting 50% of specific fixation
Protocol: (1) Affinity for the alpha2 adrenergic receptors
10 cortices removed from the brains of male rats weighing an average of 150 g were homogenized in 90 ml of sucrose 0.32M and after centrifuging the homogenized mixture at 1,000 g for 10 minutes at 0° C., the supernatant was centrifuged at 30,000 g for 10 minutes at 0° to 4° C. The new residue obtained was suspended in 480 ml of NaKPO4 buffer, pH 7.4, 50 mM. 2 ml of the suspension were then incubated for 45 minutes at 25° C. in the presence of ^3 H rauwolscine at a concentration of 0.15 nM: (i) alone (ii) with increasing concentrations of the product under test, or (iii) to determine the non-specific fixation, with non-radioactive phentolamine at a concentration of 10^-5 M. The incubated suspensions were filtered on Whatman GF/C and the filters were washed three times with 5 ml of NaKPO4 buffer, pH 7.4 at 0° C. The radioactivity of the filters was measured by liquid scintillation.
The affinity of the product tested for the alpha2 adrenegic receptors was given relative to phentolamine as reference product.
CD=concentration of phentolamine inhibiting 50% of the specific fixation of the ^3 H rauwolscine:
CX=concentration of the product under test inhibiting 50% of the specific fixation of the ^3 H rauwolscine.

[2] = tested on: mice; test: Hypobaric anoxia test on mice; assay type: in vivo; details: depression of 600 mm Hg, max 3 minutes, intraperitoneally 60 minutes before the test, dose not given
Protocol: (2) Hypobaric anoxia test on mice
This consisted of measuring over a maximum duration of 3 minutes the survival time of mice placed in a 2 liter enclosure in which there was a depression of 600 mm Hg. The products were administered intraperitoneally at a volume of 0.2 ml/10 g 60 minutes before the test.

[3] = tested on: mice; test: Test of neuronal protection in mice (kainic acid striatal lesion, serum enolase gamma-gamma); assay type: in vivo; details: mouse, 2 μg kainic acid in right striatum; product intraperitoneally 60 minutes before; blood samples 24 hours later; dose not given
Protocol: (3) Test of neuronal protection in mice
A cerebral lesion was carried out on the mouse by injection in the right striatum of 2 μg of kainic acid in a volume of 0.5 μl. […] The products were injected intraperitonally 60 minutes before the neurotoxic and the blood samples were taken 24 hours later.

[4] = tested on: Sprague Dawley rats; test: Test of anti-depressive activity (forced swimming immobility); assay type: in vivo; details: Rattus norvegicus, ip, immobility during 5 minutes, intraperitoneally 24 hours, 5 hours and a half-hour before the test, read-out: DA50 (the source's name)
Protocol: (4) Test of anti-depressive activity
The tests were carried out on groups of 5 Sprague Dawley rats and the non-conditioned animals were put for 15 minutes in a vertical perspex cylinder (diameter: 18 cm, height: […]) containing water at 25° C. to a height of 15 cm (initial swimming test). They were then dried for 15 minutes in an enclosure heated to 32° C. and 24 hours later, they were replaced in the cylinder filled with water, and the total duration of the periods of immobility was measured during 5 minutes. The compound was administered intraperitonally successively 24 hours, 5 hours and a half-hour before the test. The first administration was made immediately after the first swimming test and just before replacing the animals in their breeding box. The averages of the groups treated were compared with those of the control group by the Dunnett test.

Row | ARL (relative affinity for alpha2 adrenergic receptors, relative to phentolamine) [1] | SMILES | Survival time [2] | enolase gamma-gamma [3] | ED50 [4]
1 | 57 | O[C@@H]1C[C@H]2CCCN3CCc4c(n1c1ccccc41)[C@H]23 [Example 4, (3α, 14β) 14,15-dihydro-20,21-dinoreburnamenin-14-ol] | – | – | ~5 mg/kg
2 | 8 | C1=Cn2c3c(c4ccccc42)CCN2CCC[C@H]1[C@@H]32 [Example 5, (3α) 20,21-dinoreburnamenine] | – | – | –
3 | 633 | C1=Cn2c3c(c4ccccc42)CCN2CCC[C@@H]1[C@H]32 [Example 6, (16α) 20,21-dinoreburnamenine] | – | – | –

Row | SMILES | ARL (relative affinity for alpha2 adrenergic receptors, relative to phentolamine) [1] | Survival time [2] | enolase gamma-gamma [3] | ED50 [4]
4 | O[C@H]1C[C@@H]2CCCN3CCc4c(n1c1ccccc41)[C@@H]23 [Example 3, (14α, 16α) 14,15-dihydro-20,21-dinoreburnamenin-14-ol] | 0.3 | +37% | -24% | ~10 mg/kg
